Peptide text beside a SMILES is read from it.
Test system: IL-23 induced IL-17F in rat splenocytes
Assay: IL-17F mRNA expression induced by IL-23 in rat splenocytes
Assay type: cell-based
Conditions: IL-23 200 ng/ml, qRT-PCR; read-out: IC50, inhibition of IL-17F mRNA expression
Experimental: Sprague Dawley (SD) rat spleen was isolated and placed in 3 ml of media (RPMI 1640 with 10% FBS) in a small petri dish (35×10 mm). The rat spleen was placed on a sterile wire mesh screen using sterile forceps. The rat spleen was pushed through the screen with the plunger of a 10 ml syringe into the petri dish. Then, the suspension was mixed by gently pipetting up and down. The cells were spun down at 1,000 rpm for 10 minutes. Red blood cells were lysed by adding a Red Blood Cell lysis buffer. The cell suspension was incubated at room temperature for 5 minutes. The cells were spun down at 1,000 rpm for 10 minutes. The pelleted splenocytes were washed twice with PBS. After washing, the isolated splenocytes were re-suspended in 10 ml of culture media (RPMI 1640 with 10% FBS).
Rat splenocytes (2.5×10^6 cells/ml) were prepared and cultured in RPMI-1640 with 10% FBS for 16 hours at 37° C. Cyclic peptide no. […] The stimulation was carried out for an additional 4 hours. mRNA expression of IL-17F was measured by qRT-PCR (rat IL-17F forward primer (GGC-TCC-TGT-GAA-ACA-ACC-AT)(SEQ ID NO: 180) and rat IL-17F reverse primer (ACA-GAA-ATG-CCC-TGG-TTT-TG) (SEQ ID NO: 181). The PCR was performed under the following conditions: 95° C. for 5 minutes, 95° C. for 30 seconds, 60° C. for 30 seconds 72° C. for 30 seconds, times 40 cycles. […]

IC50: 270 nM
Structure (SMILES): CSCC[C@@H]1NC(=O)[C@H](CCCCN)NC(=O)[C@H](C)NC(=O)[C@H](C)NC(=O)[C@H](CS)NC(=O)[C@H](CC(N)=O)NC(=O)[C@H](CCCCN)NC(=O)[C@H](CC(C)C)NC(=O)[C@H](Cc2c[nH]c3ccccc23)NC(=O)[C@H](Cc2ccc(O)cc2)NC(=O)[C@H](CC(=O)O)NC(=O)[C@H](C(C)C)NC(=O)[C@H](Cc2c[nH]c3ccccc23)NC(=O)[C@H]([C@@H](C)O)NC1=O [2HT AA] (cyclo(AAKMTWVDYWLKNC))
